Reference: patent US20220031680A1, “Donecopride As Neuroprotective Agent In the Treatment of Neurodegenerative Diseases” (priority 2018, published 2022)

Columns and labels:
GFAP = test: Astrogliosis (GFAP staining) in 5×FAD mouse brain; type: in vivo; settings: 1 mg/kg twice a week for 3 months
Protocol: (§1) 5×FAD mice received chronic treatments with drugs or vehicle according to 2 different protocols. In each experiment, drugs or vehicle solution were administered i.p. twice a week (1 mg/kg). In “Protocol 1”, mice (n=6-7 mice per group) were treated with compounds for two months, from 2 to 4 months of age. In “Protocol 2”, mice (n=7) were treated with compounds for three months, from 1 month to 4 months of age. At the end of each protocol, mice were anesthetized with a mixture of 100 mg/kg ketamine and 10 mg/kg xylazine in saline solution and perfused transcardially with PBS. Brains were quickly isolated on ice, the olfactory bulbs and cerebellum removed and the two hemispheres divided. One hemisphere was frozen on dry ice and stored at −80° C. for biochemical analysis, while the other was post-fixed in 4% PFA for immunohistochemistry (IHC).
(§2) Thirty-micrometer-thick sections were cut using a vibratome (Microm HM 650V, Thermo Scientific, Saint Herblain, France) and stored in cryoprotectant medium at −20° C. For the labeling of amyloid plaques, free-floating tissue sections of frontal cortex, hippocampus and entorhinal cortex (coordinates from the bregma: frontal cortex=1.98 mm, hippocampus=−1.94 mm, entorhinal cortex=−3.08 mm) were extensively washed in PBS and then incubated in blocking solution (PBS; 3% BSA; 0.1% Triton X-100) for 1 h. Sections were stained with Hoechst dye (1:1000, Life Technologies, Saint Aubin, France) for 15 minutes to detect cell nuclei and then with freshly prepared thioflavin T solution (#T3516-5G, Sigma-Aldrich) (final concentration: 0.01 mg/ml in blocking buffer) for 15 minutes. After washing in 70% ethanol for 5 minutes, samples were mounted on poly-lysine slides with coverslips. For GFAP (glial fibrillary acidic protein) staining, free-floating brain sections were blocked as before and incubated with polyclonal rabbit anti-GFAP (1:1000, Z0334, Dako, Les Ullis, France) at 4° C. overnight. After thioflavin T staining and washing with 70% ethanol, the secondary Alexafluor 594 goat anti-rabbit antibody (1:1000, A11012, Life Technologies) was added for 2 h. PBS washes and mounting were performed as described before.
(§3) Images were acquired with an Axiolmager Z1 microscope (Carl Zeiss S.A.S., Marly le Roi, France). Analysis of thioflavin T staining was performed blindly and data are presented as the mean number of particles per mm^2 in two to three tissue sections from the same brain area/animal (Image J software). GFAP expression was quantified using Image J software and results are expressed as area fractions.
(§4) 28 female 5×FAD mice (C57BL/6J genetic background) were used in this study. Mice received vehicle or compounds (1 mg/kg) i.p., twice a week for three months, from 1 to 4 months of age.

5×FAD mice = test: Novel object recognition test in 5×FAD mice; type: in vivo, mouse; settings: 1 mg/kg twice a week for 3 months; 24 h inter-session interval
Protocol: Animal experiments were carried out in accordance with the Directive by the Council of the European Communities of Nov. 24, 1986 (86/609/EEC). All efforts were made to minimize animal suffering and to reduce the number of mice used. The generation of 5×FAD mice was described in Oakley et al. (2006) J. Neurosci. 26:10129-10140. These transgenic mice overexpress both human APP (695) harboring the Swedish (K670N, M671L), Florida (1716V) and London (V7171) familial AD (FAD) mutations and human Presenilin 1 (PS1) harboring the two FAD mutations M146L and L286V. Expression of both transgenes is regulated by neuronal-specific elements of the mouse Thy1 promoter. The 5×FAD strain (B6/SJL genetic background) was maintained by crossing hemizygous transgenic mice with B6/SJL F1 breeders. The 5×FAD strain (C57BL/6J genetic background) was maintained by crossing hemizygous transgenic mice with C57BL/6J F1 breeders. All animals were genotyped by PCR using tail genomic DNA. Transgenic and WT mice were bred in our animal facility, had access to food and water ad libitum and were housed under a 12 h light-dark cycle at 22-24° C. Female 5×FAD mice were used in this study. For each experiment, the age of mice is indicated in months (with a two-week range).
Compounds were resuspended in DMSO (37.5 μg/μl, stored at −20° C.) and freshly diluted 1:250 in 0.9% NaCl prior administration. Vehicle solution (0.9% NaCl, 0.4% DMSO) was used as control.
5×FAD mice received chronic treatments with drugs or vehicle according to 2 different protocols. In each experiment, drugs or vehicle solution were administered i.p. twice a week (1 mg/kg). […]
The cognitive performance of mice was tested using the novel object recognition (NOR) test (Bevins and Besheer (2006) Nat. Protoc. 1:1306-1311). […] The whole experiment was video-recorded and object exploration [time spent by the mouse nose in contact with the object or by sniffing it at a distance s 1 cm] was blindly measured. […] A discrimination index was also calculated ([novel−familiar]/[familiar+novel]). […]

amyloid plaques = test: Number of amyloid plaques (thioflavin T) in 5×FAD mouse brain; type: in vivo; settings: 1 mg/kg twice a week for 3 months
Protocol: as §1, §2, §3, §4
Anti-amyloid effect. Frontal cortex, hippocampus and entorhinal cortex were analyzed as representative areas of 5×FAD mouse brain (frontal, median and caudal sections) and of human brain regions that are affected early by Alzheimer's disease and are highly enriched in amyloid deposits.

Aβ42 = Aβ42 concentration in cerebrospinal fluid of 5×FAD mice; type: in vivo, mouse; settings: 1 mg/kg twice a week for 3 months; compared to controls
Protocol: as §1
Mice were anesthetized and mounted onto a stereotaxic instrument. The neck skin was cut and subcutaneous tissue and muscles separated with the help of micro-retractors (Fine Science Tools, Heidelberg, Germany). Mice were then laid down so that the head formed an angle of about 135° with the body (Liu and Duff (2008) J. Vis. Exp. 10:960). A capillary tube (Borosilicate glass, B100-75-10, Sutter Instruments, Novato, Calif., USA) was used to punch the dura mater of the cisterna magna. CSF was collected by capillary action and transferred to 0.5 mL microtubes, immediately frozen on dry ice and stored at −80° C. until use. Once thawed, samples were heated at 60° C. for 5 min as described in the international application WO 2008/009868 and analyzed without further freezing-thawing cycles.
ELISA kits from IBL International (Hamburg, Germany) for the dosage of Aβ40 (human amyloid β (1-40) assay kit, #27713) or Aβ42 (human amyloid β (1-42) assay kit, #27719) were used according to the manufacturer's instructions. Reactions were read at 620 nm and 450 nm using an Infinite 2000 luminescence counter. The obtained values were normalized to the protein concentration of each sample, measured using a BCA protein assay (Sigma-Aldrich). […]

SMILES: CCCCN1CCC(CCC(=O)c2cc(Cl)c(N)cc2OC)CC1 [RS 67333, 1-(4-amino-5-chloro-2-methoxy-phenyl)-3-(1-butyl-4-piperidinyl)-1-propanone, reference compound]
- GFAP staining in frontal cortex or hippocampus (GFAP; compared to controls): not significantly different
- decrease of GFAP staining in entorhinal brain slices (GFAP; compared to vehicle): 62±6%
- recognition memory, exploration of novel vs familiar object (NOR) (5×FAD mice): reverses cognitive impairment
- Amyloid plaque number in hippocampus (amyloid plaques; compared to controls): not significantly different
- reduction of the number of amyloid plaques in entorhinal cortex (amyloid plaques; compared to vehicle): No significant effect
- reduction of the number of amyloid plaques in frontal cortex (amyloid plaques; compared to vehicle): No significant effect
- Aβ42 concentration in cerebrospinal fluid (CSF) (Aβ42): not significantly different
